The values that follow come from US20030032662A1, “Micronized leflunomide” (priority 2000, published 2003).

The data set can be described thus: Particle size after micronizing in a micronizer. The settings on record: pure dry leflunomide micronized in a micronizer (Example 1). It is filed as physicochemical. An excerpt:
Pure dry leflunomide was micronized in a micronizer. The result was micronized leflunomide of a particle size of less than 5 micrometer.

On to `Cc1oncc1C(=O)Nc1ccc(C(F)(F)F)cc1` [micronized leflunomide, N-(4′-trifluoromethylphenyl)-5-methylisoxazole-4-carboxamide], for which the particle size entry is “less than 5 micrometer”.
